2 molecules from patent publication US20230381182A1, “Biomarkers Related to Immune Checkpoint Inhibitor Therapy and Methods of Using the Same” (Senda Biosciences, Inc., priority 2020, published 2023) can be followed below.

Assay [1] deals with CT26 cells. Description: Anti-tumor efficacy in CT26 mouse model unresponsive to anti-PD-L1 therapy. The class given is in vivo, Balb/c mice. The note with it: Compound No. 30 10 mg/kg p.o. once a day over 14 days coadministered with anti-PD-L1 antibody 10 mg/kg i.p. every 3 days. As for the experimental part:
The anti-tumor efficacy of Compound No. 30 was studied in a CT26 mouse model which is unresponsive to anti-PD-L1 therapy only. CT26 cells were implanted subcutaneously into Balb/c mice which were then randomized and treated either with an […], an anti-PD-L1 antibody, or Compound No. 30 of Table 2 in combination with the anti-PD-L1 antibody. Compound No. 30 was dosed 10 mg/kg, p.o. once a day over 14 days and the anti-PD-L1 antibody was dosed at 10 mg/kg i.p. every 3 days.

Assay [2] has as its target T1, AhR (Homo sapiens, UniProt P35869).
T1 construct: endogenous in cells; host or cells: Human HepG2 liver carcinoma AhR-Lucia reporter cells (DRE-luciferase reporter stably transfected)
T1 sequence (P35869 11-848): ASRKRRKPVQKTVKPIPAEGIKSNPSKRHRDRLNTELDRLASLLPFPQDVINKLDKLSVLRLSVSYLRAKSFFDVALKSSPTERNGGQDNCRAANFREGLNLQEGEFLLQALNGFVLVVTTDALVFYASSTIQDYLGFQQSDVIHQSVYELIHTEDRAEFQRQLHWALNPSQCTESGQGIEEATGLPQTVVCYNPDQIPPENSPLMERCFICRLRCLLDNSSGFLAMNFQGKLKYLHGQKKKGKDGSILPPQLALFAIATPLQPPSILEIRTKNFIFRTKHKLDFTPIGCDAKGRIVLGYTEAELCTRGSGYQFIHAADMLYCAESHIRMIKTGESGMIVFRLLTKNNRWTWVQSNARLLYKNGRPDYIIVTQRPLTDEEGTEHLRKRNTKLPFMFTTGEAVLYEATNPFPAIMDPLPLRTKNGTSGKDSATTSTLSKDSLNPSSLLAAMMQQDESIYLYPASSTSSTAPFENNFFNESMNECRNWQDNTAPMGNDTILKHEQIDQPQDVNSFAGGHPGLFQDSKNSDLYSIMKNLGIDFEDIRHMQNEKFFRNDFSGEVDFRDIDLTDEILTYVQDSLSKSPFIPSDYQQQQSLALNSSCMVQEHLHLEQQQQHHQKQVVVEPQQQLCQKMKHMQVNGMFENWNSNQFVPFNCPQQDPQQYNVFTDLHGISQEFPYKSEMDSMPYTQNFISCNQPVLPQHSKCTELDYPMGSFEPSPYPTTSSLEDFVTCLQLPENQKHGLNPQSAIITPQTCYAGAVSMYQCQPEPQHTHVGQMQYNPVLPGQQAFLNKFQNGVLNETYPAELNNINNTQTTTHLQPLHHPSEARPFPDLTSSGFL
In words: DRE-Luciferase reporter assay (HepG2-Luc). The class given is cell-based. The note with it: Human HepG2 liver carcinoma AhR-Lucia reporter cells; inhibition of luciferase activity induced by AhR activating ligand at its EC50. The source says:
AhR binds to dioxin responsive elements (DRE) upstream of the genes that it activates. One measure of AhR activity is activation of a reporter gene, such as luciferase, downstream of one or multiple DRE elements. Luciferase activity reflects activation and inhibition of AhR in the cells expressing this reporter. 20000 Human HepG2 liver carcinoma—AhR-Lucia reporter cells or Human HT29 colon adenocarcinoma-AhR reporter cells or other cell lines with a DRE-luciferase reporter stably transfected were plated in Eagle's Minimal Essential Medium, 10% heat-inactivated FBS, 1× non-essential amino acids Pen-Strep (10,000 U/mL) and Normocin (100 ug/mL) in plates (96-well, 384-well or other plates) and incubated overnight at 37° C. in a CO2 incubator and treated with and without AhR antagonists at a log dilution starting at 100 μM. […]
Cells were incubated for 24 or 48 hours or another time point and the supernatant was analyzed for determination of luciferase activity as a read-out of the AhR activation or inhibition. Luciferase was measured with the commercial kit QUANTI-Luc™ assay solution kit from InvivoGen following the manufacturer's instructions.
The level of luciferase with only agonist ligand added was the maximum signal while the luciferase with […] was the minimum signal. IC50 values were determined as the concentration which inhibits half of the luciferase activity.

One may read the IC50 as the concentration that inhibits the measured activity by half.

`C[C@H](n1cnc2c(-c3cnn(C)c3)nc(-c3ccc(Cl)cc3)cc2c1=O)C(C)(C)O` [Compound No. 30, (S)-6-(4-chlorophenyl)-3-(3-hydroxy-3-methylbutan-2-yl)-8-(1-methyl-1H-pyrazol-4-yl)pyrido[3,4-d]pyrimidin-4(3H)-one]: the “tumor volume (tumor growth curves)” value in assay [1] (p=0.039, Mann-Whitney, FIG. 4A) was “reduction in tumor volume”. Also, the tumor weight entry in assay [1] (p=0.067, Mann-Whitney, FIG. 4B) was “reduction in tumor weight”.
With `O=c1c2cc(-c3ccc(OC(F)(F)F)cc3)nc(-c3cccnc3)c2ncn1C[C@@H](O)C(F)(F)F` [compound 123, (R)-8-(pyridin-3-yl)-3-(3,3,3-trifluoro-2-hydroxypropyl)-6-(4-(trifluoromethoxy)phenyl)pyrido[3,4-d]pyrimidin-4(3H)-one], the IC50 in assay [2] is under 100 nM.
